In US11279726B2, “Norbornene-based amphipathic compound and utilization thereof” (Industry-University Cooperation Foundation Hanyang …, priority 2017, dated 2022):

Tests used:
[1] = target: T1, uric acid-xanthine/H+ symporter (UapA) (Emericella nidulans, UniProt Q07307, G411V); assay: UapA extraction and thermal stability by fluorescence size exclusion chromatography (FSEC); parameters: species or system Aspergillus nidulans; conditions: 1.0 wt % amphiphile, 10 minutes at 40° C.; compared with DDM
T1 construct: made in house; host or cells: Saccharomyces cerevisiae FGY217
Experimental: An experiment for measuring the structural stability of uric acid-xanthine/H+ symporter (UapA) isolated from Aspergillus nidulans using NBMs was performed. The structural stability of UapA was evaluated using […].
Specifically, UapAG411VΔ1-11 (hereinafter, referred to as “UapA”) was expressed as GFP fusion in Saccharomyces cerevisiae FGY217 strain and isolated in a sample buffer (20 mM Tris (pH 7.5), 150 mM NaCl, 0.03% DDM, 0.6 mM xanthine) according to the method described in the literature written by J. Leung et al. (Mol. Membr. Biol. 2013, 30, 32-42). Membranes containing UapA were resuspended in PBS, 10 mM imidazole pH 8.0, 150 mM NaCl, 10% glycerol, and the protein concentration was measured. The membranes were adjusted to a concentration of 1 mg·ml^−1 and 1 ml aliquots were individually incubated with DDM or NBMs at a final amphiphilic material concentration of 1.0 wt % for 10 minutes at 40° C. 100 μl aliquots were removed from each tube, and a fluorescence reading was taken for each sample before and after ultracentrifugation at 150,000 g for 10 minutes to remove insoluble material. The remaining soluble fraction for each condition was submitted to fluorescent size exclusion chromatography (FSEC) using a Superose 6 column (GE Healthcare) equilibrated with DDM.

[2] = Hydrodynamic radius / size distribution of micelles by dynamic light scattering (DLS); assay type: physicochemical; conditions: 1.0 wt % agent
Experimental: A method for measuring the radius of a micelle is not particularly limited, and a method well known in the art may be used, and for example, the radius thereof may be measured using a dynamic light scattering (DLS) experiment.
(§1) To identify the characteristics of NBMs synthesized in Preparation Example 1 to 6 according to the synthetic method of Example 1, molecular weights (MWs) of NBMs, critical micelle concentrations (CMCs) and hydrodynamic radii (Rh) of the micelles were measured.
(§2) Specifically, the critical micelle concentrations (CMCs) were measured by fluorescent staining with diphenylhexatriene (DPH), and the hydrodynamic radii (Rh) of the micelle formed with individual agents (1.0 wt %) were measured by dynamic light scattering (DLS).

[3] = Critical micelle concentration by fluorescent staining with diphenylhexatriene (DPH); assay type: physicochemical; conditions: aqueous solution
Experimental: A method for measuring CMC is not particularly limited, and a method widely known in the art may be used, for example, by fluorescence staining with diphenylhexatriene (DPH).
as §1, §2

[4] = target: T2, Salmonella typhimurium melibiose permease (MelBSt) (Salmonella typhimurium, UniProt P30878); assay: MelBSt extraction and thermostability (SDS-PAGE / western blotting); conditions: 1.5 wt %
T2 construct: made in house; host or cells: E. coli DW2 (ΔmelB, ΔlacZY)
Experimental: An experiment of measuring structural stability of MelBSt (Salmonella typhimurium melibiose permease) protein with NBMs was carried out. The MelBSt protein was extracted from the membrane using NBMs or DDM, and the amounts and structure of the extracted proteins were analyzed by SDS-PAGE and western blotting. The concentration of the used amphiphilic compound was 1.5 wt %. The proteins were extracted at four temperatures (0, 45, 55, and 65° C.) and incubated at the same temperature for 90 minutes, and the amounts of the remaining proteins solubilized in an aqueous solution were measured, so as to simultaneously evaluate both performances of the compound such as protein extraction efficiency and stabilization activity. The amounts of the proteins extracted and stabilized by respective amphiphilic molecules were represented as relative values (%) to the amounts of total proteins contained in the membrane sample not treated with an amphiphilic molecule.
Specifically, Salmonella typhimurium melibiose permease (MelBSt) with a C-terminal 10-His tag was expressed in E. coli DW2 cells (^ΔmelB and ^ΔlacZY) using plasmid pK95^ΔAHB/WT MelBSt/CH10. Cell growth and membrane preparation were carried out according to the method described in the literature written by A. S. Ethayathulla et al. (Nat. Commun. 2014, 5, 3009). Protein assays were carried out with a Micro BCA kit (Thermo Scientific, Rockford, Ill.). The measurement of MelBSt stability was carried out on NBMs or DDM according to the protocol described by P. S. Chae et al. (Nat. Methods 2010, 7, 1003-1008). Membrane samples containing MelBSt (final protein concentration was 10 mg/mL) were incubated with a solubilization buffer (20 mM sodium phosphate, pH 7.5, 200 mM NaCl, 10% glycerol, 20 mM melibiose) and 1.5% (w/v) of DDM or NBMs (X-NBM-C10, D-NBM-C10, X-NBM-C11 or D-NBM-C11) at four different temperatures (0, 45, 55, 65° C.) for 90 minutes. To remove insoluble materials, following ultracentrifugation at 355,590 g using a Beckman Optimal™ MAX ultracentrifuge with TLA-100 rotor for 45 minutes at 4° C. was performed, and 20 μg of each protein sample was separated by SDS-16% PAGE, and then immunoblotted with a Penta-His-HRP antibody (Qiagen, Germantown, Md.). MelBSt was detected using SuperSignal West Pico chemiluminescent substrate by an ImageQuant LAS 4000 Biomolecular Imager (GE Health Care Life Science).

[5] = target: T3, human β2 adrenergic receptor (β2AR) (Homo sapiens, UniProt P07550); assay: β2AR stability: [3H]-DHA ligand binding activity of solubilized receptor
T3 construct: made in house
Experimental: An experiment of measuring the stability of human β2 adrenergic receptor (β2AR) and G-protein-coupled receptor (GPCR) for NBMs was carried out. That is, the receptor was extracted from the cell membranes by DDM and purified in the same amphiphilic compound. The DDM-purified receptor was diluted in individual DDM- or NBM-containing buffers to adjust the final compound concentration to be CMC+0.2 wt %. The receptor stability was assessed by measuring ligand binding activity using [3H]-DHA.
To measure long-term stability of human β2AR with NBMs (D-NBM-C11 and X-NBM-C11) showing an excellent ligand binding activity of the receptor in the previous experiment, a radio-labeled ligand binding experiment was performed by the following method. β2AR was purified using 0.1% DDM (D. M. Rosenbaum et al., Science, 2007, 318, 1266-1273), and finally concentrated to approximately 10 mg/ml (approximately 200 μM). A main binding mixture containing 10 nM [^3H]-DHA supplemented with 0.5 mg/ml BSA was prepared in 0.2% amphiphilic compound (DDM or NBMs (D-NBM-C11 and X-NBM-C11)) using β2AR purified with DDM. The receptor purified with DDM or NBMs was incubated with 10 nM [^3H]-DHA at room temperature for 30 minutes. The mixture was loaded onto a G-50 column, the fractions were collected in a 1 ml binding buffer (20 mM HEPES pH 7.5, 100 mM NaCl, containing 0.5 mg/ml BSA and 20× CMC individual amphiphilic compounds). In addition, each fraction was supplemented with a 15 ml scintillation fluid, and receptor-bound [^3H]-DHA was measured using a scintillation counter (Beckman) at regular intervals for 3 days. The binding capacity of [^3H]-DHA was shown as a bar chart (FIG. 11a).
In addition, β2AR was extracted from the membrane using 1.0 wt % of DDM or X-NBM-C11 and purified at 0.2 wt % for the same individual amphiphilic compounds. Structural stability of the receptor was assessed by ligand binding activity, which was measured with sample aliquots at regular intervals during 7-day incubation at room temperature. Each experiment was carried out in triplicate (FIG. 12b).

β2AR-Gs complex = β2AR-Gs complex (Homo sapiens, UniProt P07550); assay: Negative stain EM analysis of β2AR-Gs complex
Experimental: A β2AR-Gs protein complex was prepared for electron microscopy using the conventional negative staining protocol, and imaged at room temperature with a Tecnai T12 electron microscope operated at 120 kV using low-dose procedures. Images were recorded at a magnification of 71,138× and a defocus value of approximately 1.4μ using a Gatan US4000 CCD camera. All images were binned (2×2 pixels) to obtain a pixel size of 4.16 A at the specimen level. Particles were manually excised using e2boxer (part of the EMAN2 software suite). 2D reference-free alignment and classification of particle projections were performed using ISAC. 14,556 projections of β2AR-Gs were subjected to ISAC, producing 199 classes consistent over two-way matching and accounting for 10,100 particle projections.

SMILES | Retention of monodispersed UapA-GFP peak after heating (FSEC) [1] | Rh (nm), hydrodynamic radius of micelles [2] | CMC [3] | CMC (wt %) [3] | MelBSt membrane protein stabilization activity (overall) ([4]; elevated temperature) | MelBSt protein extraction (solubilization) efficiency ([4]; 0° C. and 45° C., 90 minutes) | MelBSt protein extraction efficiency ([4]; 0° C., 90 minutes) | Amount of solubilized MelBSt protein ([4]; 65° C., 90 minutes) | Long-term ligand binding activity of β2AR ([3H]-DHA) ([5]; 0.2% amphiphile, room temperature, 3 days (7 days for receptor extracted with the amphiphile)) | Initial ligand binding activity of β2AR ([3H]-DHA) ([5]; DDM-purified receptor diluted to CMC+0.2 wt % amphiphile) | Particle dispersity of β2AR-Gs complex in negative stain EM (β2AR-Gs complex)
CCCCCCCCCCOCC1C2CC([C@H]1COCCCCCCCCCC)[C@H](O[C@@H]1OC(CO)[C@@H](O[C@H]3OC(CO)[C@@H](O)C(O)C3O)C(O)C1O)C2O[C@@H]1OC(CO)[C@@H](O[C@H]2OC(CO)[C@@H](O)C(O)C2O)C(O)C1O (stereo partly shown) [X-NBM-C10] | more or less comparable to DDM | 4.0 ± 0.02 nm | ~0.007 mM | ~0.0008 wt % | – | – | – | – | – | – | –
CCCCCCCCCOCC1C2CC([C@@H]1COCCCCCCCCC)[C@H](O[C@@H]1OC(CO)[C@@H](O[C@H]3OC(CO)[C@@H](O)C(O)C3O)C(O)C1O)C2O[C@@H]1OC(CO)[C@@H](O[C@H]2OC(CO)[C@@H](O)C(O)C2O)C(O)C1O (stereo partly drawn) [D-NBM-C9] | low recovery of monodispersed protein peak | 3.3 ± 0.04 nm | ~0.012 mM | ~0.0013 wt % | – | – | – | – | – | – | –
CCCCCCCCCCOCC1C2CC([C@@H]1COCCCCCCCCCC)[C@H](O[C@@H]1OC(CO)[C@@H](O[C@H]3OC(CO)[C@@H](O)C(O)C3O)C(O)C1O)C2O[C@@H]1OC(CO)[C@@H](O[C@H]2OC(CO)[C@@H](O)C(O)C2O)C(O)C1O (stereo partly drawn) [D-NBM-C10] | slightly lower effect than DDM | 3.5 ± 0.03 nm | ~0.008 mM | ~0.0009 wt % | excellent membrane protein stabilization activity | – | – | – | – | – | –
CCCCCCCCCCCCO[C@@H]1O[C@H](CO)[C@@H](O[C@H]2O[C@H](CO)[C@@H](O)[C@H](O)[C@H]2O)[C@H](O)[C@H]1O [DDM, n-dodecyl-β-D-maltopyranoside, reference compound] | single monodispersed peak with relatively high intensity | 3.4 ± 0.03 nm | ~0.17 mM | ~0.0087 wt % | – | high MelBSt protein extraction efficiency | higher protein extraction efficiency than NBMs | no MelBSt protein solubilized in an aqueous solution was detectable | rapidly decreased over time | excellent initial ligand binding activity | aggregated particles
CCCCCCCCCOCC1C2CC([C@H]1COCCCCCCCCC)[C@H](O[C@@H]1OC(CO)[C@@H](O[C@H]3OC(CO)[C@@H](O)C(O)C3O)C(O)C1O)C2O[C@@H]1OC(CO)[C@@H](O[C@H]2OC(CO)[C@@H](O)C(O)C2O)C(O)C1O (stereo partly shown) [X-NBM-C9] | more or less comparable to DDM | 3.7 ± 0.03 nm | ~0.010 mM | ~0.0011 wt % | – | – | – | – | – | – | –
CCCCCCCCCCC(CCCCCCCCCC)(CO[C@@H]1O[C@H](CO)[C@@H](O[C@H]2O[C@H](CO)[C@@H](O)[C@H](O)[C@H]2O)[C@H](O)[C@H]1O)CO[C@@H]1O[C@H](CO)[C@@H](O[C@H]2O[C@H](CO)[C@@H](O)[C@H](O)[C@H]2O)[C@H](O)[C@H]1O [MNG-3, reference compound] | ineffective in preventing protein denaturation/aggregation | – | – | – | – | – | – | – | – | – | –
